According to ChEMBL document CHEMBL1201862, “PubChem BioAssay data set” (2004):
The source made the active and inactive calls.

Experiments:
Estrogen receptor = target: T1, Estrogen receptor (Homo sapiens, UniProt P03372); assay: ERα coactivator recruitment enhancers – biochemical, TR-FRET, ERα LBD, dose response (AID 737)
T1 sequence (P03372 whole entry): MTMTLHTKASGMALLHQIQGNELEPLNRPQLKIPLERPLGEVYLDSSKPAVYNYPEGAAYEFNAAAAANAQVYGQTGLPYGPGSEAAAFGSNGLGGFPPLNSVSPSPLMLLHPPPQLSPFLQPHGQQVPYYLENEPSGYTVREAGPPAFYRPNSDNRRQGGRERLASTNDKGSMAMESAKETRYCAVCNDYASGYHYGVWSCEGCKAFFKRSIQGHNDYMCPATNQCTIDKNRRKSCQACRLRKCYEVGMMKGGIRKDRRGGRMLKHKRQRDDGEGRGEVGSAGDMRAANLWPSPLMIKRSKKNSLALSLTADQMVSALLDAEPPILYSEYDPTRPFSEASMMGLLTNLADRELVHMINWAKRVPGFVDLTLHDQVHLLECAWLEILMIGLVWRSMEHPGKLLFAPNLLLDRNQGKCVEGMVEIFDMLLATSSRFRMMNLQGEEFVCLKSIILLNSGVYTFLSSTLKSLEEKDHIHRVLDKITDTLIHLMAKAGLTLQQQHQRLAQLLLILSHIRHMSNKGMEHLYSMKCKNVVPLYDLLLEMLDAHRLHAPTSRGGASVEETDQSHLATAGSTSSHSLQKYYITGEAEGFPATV

Protein Rev = target: T2, Protein Rev (Human immunodeficiency virus type 1 group M subtype B (isolate WMJ22)(HIV-1), UniProt P05866); assay: inhibitors of Rev protein–RRE RNA complex – biochemical, protein-RNA interaction, dose response (AID 842); set-up: species or system Human immunodeficiency virus 1
T2 sequence (P05866 whole entry): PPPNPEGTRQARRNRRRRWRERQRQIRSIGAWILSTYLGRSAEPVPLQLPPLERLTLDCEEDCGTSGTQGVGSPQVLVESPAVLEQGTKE

[1] = Luminescence Cell-Based Dose Confirmation HTS to Identify Inhibitors of Platelet Dense Granule Release. [Related pubchem assays: 1663 (Primary HTS), 1678 (Summary of Project)]; format: functional
[2] = target: T3, Trace amine-associated receptor 1 (Homo sapiens, UniProt Q96RJ0); assay: Fluorescence-based cell-based high throughput dose response assay to identify agonists of the human trace amine associated receptor 1 (TAAR1).; format: functional
T3 sequence (Q96RJ0 whole entry): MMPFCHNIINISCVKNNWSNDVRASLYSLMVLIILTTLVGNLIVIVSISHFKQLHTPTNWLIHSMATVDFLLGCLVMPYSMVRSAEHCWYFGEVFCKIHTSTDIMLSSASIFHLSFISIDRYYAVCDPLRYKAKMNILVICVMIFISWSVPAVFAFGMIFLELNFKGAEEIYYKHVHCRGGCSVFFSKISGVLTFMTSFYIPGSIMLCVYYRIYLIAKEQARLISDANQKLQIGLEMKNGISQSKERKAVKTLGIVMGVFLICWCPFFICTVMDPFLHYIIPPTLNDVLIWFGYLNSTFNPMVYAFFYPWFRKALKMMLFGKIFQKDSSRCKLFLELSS

[3] = target: T4, Oxysterols receptor LXR-beta (Homo sapiens, UniProt P55055); format: functional, cell-based;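 note: agonist activity at LXR measured by a cell-based luminescence readout across a dose range, run as a counterscreen for daf-12 agonists; HEK293 cells with Gal4-LXR fusion and GAL4-driven luciferase reporter; potency for activation of Gal4-LXR reporter so compounds are agonists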
T4 sequence (P55055 whole entry): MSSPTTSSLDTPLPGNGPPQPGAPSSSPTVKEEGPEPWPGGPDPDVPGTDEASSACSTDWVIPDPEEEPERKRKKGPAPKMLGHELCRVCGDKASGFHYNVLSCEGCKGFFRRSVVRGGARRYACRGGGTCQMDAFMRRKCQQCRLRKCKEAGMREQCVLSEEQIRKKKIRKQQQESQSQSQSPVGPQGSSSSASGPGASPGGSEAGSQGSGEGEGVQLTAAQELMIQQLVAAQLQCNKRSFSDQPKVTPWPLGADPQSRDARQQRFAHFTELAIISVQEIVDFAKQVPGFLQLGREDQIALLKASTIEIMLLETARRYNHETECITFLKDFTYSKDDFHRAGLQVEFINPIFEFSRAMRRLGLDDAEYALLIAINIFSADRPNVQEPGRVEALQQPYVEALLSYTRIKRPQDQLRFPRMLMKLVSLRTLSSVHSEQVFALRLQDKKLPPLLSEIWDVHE

cells [4] = format: functional, cell-based
cells [5] = format: functional, cell-based; remark: listed apart in the source
[6] = target: T5, Luciferin 4-monooxygenase (Photinus pyralis, UniProt P08659); assay: inhibition of purified Photinus pyralis luciferase – biochemical, luminescence, dose response (AID 1891)
[7] = target: T3, Trace amine-associated receptor 1; assay: Counterscreen for agonists of the human trace amine associated receptor 1 (hTAAR1): Fluorescence-based cell-based high throughput dose response assay to identify hTAAR1 agonist that also desensitize TAAR1 receptor response.; format: functional
HT-1080 = assay: HT1080 cell viability loss – fluorescence readout (AID 620); format: functional, cell-based; conditions: Homo sapiens
[8] = target: T5, Luciferin 4-monooxygenase; assay: Counter Screen for Luciferase-based Assay Positives. [Related pubchem assays: 620, 618, 411 ]
Vero [9] = assay: Vero cell viability after compound exposure – synthesized analogs, set II, cytotoxicity control for West Nile virus antiviral project, SAR follow-up (AID 2402); format: functional; conditions: Chlorocebus sabaeus
Vero [10] = assay: Vero 76 cell viability after compound exposure – Vero 76 cells, synthesized analogs, cytotoxicity control for West Nile virus antiviral project, SAR follow-up (AID 2414); format: functional; conditions: Chlorocebus sabaeus
[11] = A Cell Based Assay for the Identification of Probe candidate Compounds with Anti- Venezuelan Equine Encephalitis virus. [Related pubchem assays: 2409, 2419, 1621, 2238, 2405, 2024, 2065, 2402, 2414, 1635, 1650, 2244 ]; format: functional

T5 sequence (P08659 whole entry): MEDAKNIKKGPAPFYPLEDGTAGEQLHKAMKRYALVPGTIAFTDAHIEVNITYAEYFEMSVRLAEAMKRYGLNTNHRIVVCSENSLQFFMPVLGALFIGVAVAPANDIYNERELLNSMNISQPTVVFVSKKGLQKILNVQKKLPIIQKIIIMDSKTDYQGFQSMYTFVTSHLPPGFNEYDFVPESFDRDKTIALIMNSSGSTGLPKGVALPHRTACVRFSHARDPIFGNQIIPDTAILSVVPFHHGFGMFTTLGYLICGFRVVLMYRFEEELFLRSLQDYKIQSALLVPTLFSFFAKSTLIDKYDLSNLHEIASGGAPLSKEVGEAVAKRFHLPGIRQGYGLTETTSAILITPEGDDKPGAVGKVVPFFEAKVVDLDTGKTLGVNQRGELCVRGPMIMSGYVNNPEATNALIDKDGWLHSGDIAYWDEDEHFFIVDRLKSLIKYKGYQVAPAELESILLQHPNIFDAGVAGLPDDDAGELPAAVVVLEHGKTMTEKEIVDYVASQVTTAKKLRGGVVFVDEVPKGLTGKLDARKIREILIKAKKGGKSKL

## O=C(c1cc2sccc2n1Cc1ccccc1)N1CCc2ccccc21
Estrogen receptor
  EC50: 23.4 µM (active)

## Nc1nc(Nc2ccc(Cl)cc2)nc2ccccc12
Protein Rev
  IC50: > 79.4 µM (not active)
[1]
  EC50: 2.37 µM (active)
[2]
  EC50: 19.2 µM (inactive)
[3]
  EC50: > 67.5 µM (inactive)
Cells [4]
  EC50: > 29.9 µM (inactive)
Cells [5]
  IC50: > 29.9 µM (inactive)
[6]
  EC50: 0.347 µM (active)
[7]
  IC50: 9.98 µM (active)
HT-1080
  EC50: > 50 µM (not active)
[8]
  EC50: 1.8 µM (active)

## C=CCN(C(=O)c1ccccc1Cl)c1nc(-c2ccc(OC)cc2)cs1
Vero [9]
  CC50: 11.1 µM (active)
Vero [10]
  CC50: 24 µM (active)
[11]
  IC50: 50.1 µM (active)
